Test results published in US20250295686A1, “COMBINATION DECITABINE AND MPS1 INHIBITOR THERAPY TO PRIME CANCER IMMUNOGENICITY” (Dana-Farber Cancer Institute, Inc., priority 2021, published 2025).
“Also recorded” adds a separate entry of the source.

Tests used:
Format in all cases: cell-based, human
H1944 cells [1] = test: Quantification of micronucleus formation; conditions: 48-hour pulse treatment schedule, 200 nM CFI-402257, 5 nM docetaxel, 200 nM barasertib
Excerpt: MPS1 is a regulator of the spindle assembly checkpoint (SAC), and MPS1 inhibition in other contexts is known to facilitate massive chromosome missegregation (London and Biggins, 2014). This effect could therefore be related to the formation of micronuclei, known activators of cGAS-STING signaling generated by mitotic slippage and subsequent progression into G1 (Mackenzie et al., 2017). […] Furthermore, induction of CXCL10 mRNA expression in H1944 cells directly correlated with the number of micronuclei induced by these DNA-damaging agents, with CFI-402257 representing the clear outlier (FIG. 5C). Additionally, Lamin B2 over-expression, which is sufficient to inhibit micronuclei disruption (Hatch et al., 2013) and could protect against cGAS recognition, attenuated CXCL10 secretion induced by pulse treatment with MPS1 inhibitor (FIGS. 6A and 6B).
Cells were plated onto chamber slides (CellTreat, Cat #229168), and treated with DNA-damaging agents for 48 hours. […] Z-stack images were subjected to maximum projection followed by quantitative analysis using CellSens. All samples were imaged and analyzed with the same setting throughout the experiments. The number of micronuclei were counted from three different fields for each sample. […] Slides were imaged with Zeiss LSM 880 confocal microscopy, and colocalization was determined using ImageJ.

STING pathway = test: Screening of DNA-damaging agents: CXCL10 / IFN-β ELISA in conditioned medium of H1944 cells after pulse treatment
Excerpt: (§1) Due to their particular hypersensitivity, H1944 cells were utilized as a model system in which to conduct an unbiased screen of cytotoxic chemotherapies or targeted DNA-damaging agents for their ability to upregulate endogenous 2′3′-cGAMP production following pulse treatment, including cGAS-deficient H2122 cells as a counter-screen (FIGS. 3A and 3B). […] Additionally, hydroxyurea or nocodazole were included as controls to induce S-phase or M-phase cell cycle arrest. The IC50 was identified for each compound for cell viability in H1944 cells, and this concentration was utilized for the screen (FIG. 4A and Table 1). It was shown that each agent induced cellular cytotoxicity and/or DNA-damage response at this concentration, as measured by the induction of propidium iodide positive cells, cleaved PARP fragments, or histone TH2A.X expression (FIGS. 4B and 4C).
(§2) Human IFN-β (Thermo Fisher Scientific, Cat. #414101), human CXCL10 (R&D systems, Cat. #DIP100), mouse CXCL10 (R&D systems, Cat. #DY466), and 2′3′-cGAMP (Cayman Chemical, Cat. #501700) ELISAs were performed according to the manufacturer's instructions. Conditioned media from each cell lines was collected after 24 hour culture. Values represent the average of four replicates from at least two independent experiments (biological replicates).

H1944 cells [2] = test: Cell viability assay to determine an IC50 (CellTiter-Glo); conditions: Homo sapiens, NCI-H1944, 72 hours with drug
Excerpt: as §1
3000 cells were plated onto 96-well plates, and then cultured for 72 hours in the presence of each DNA-damaging agent at the indicated concentration. Values of CellTiter-Glo Luminescent Cell Viability assay (Promega) […] were normalized to vehicle treated cells. Plates were read on a Tecan Infinite M200 Pro plate reader and analysis was performed using Prism7 (GraphPad Software). All conditions were tested in triplicate.

KL NSCLC cell lines = test: CXCL10 ELISA after exogenous CDN exposure, KL NSCLC cell lines; conditions: 24 hours
Excerpt: Treatment with 2′3′-cGAMP or ADU-S100 was utilized to examine the sensitivity of KP or KL NSCLC cell lines to exogenous CDN exposure. […] KL cell response to extracellular CDNs was still modest as compared with endothelial cells (HUVEC) or monocytic THP-1 cells, which also have different membrane permeabilities (FIG. 2C) (Cordova et al., 2021; Luteijn et al., 2019; Ritchie et al., 2019).
as §2

THP1 cells = test: STING pathway activation (CXCL10 ELISA, immunoblot) in PMA-differentiated macrophage-like THP1 cells; conditions: 200 nM CFI-402257 screening schedule or 10 μM ADU-S100 24 hours
Experimental: Based on these observations, MPS1 inhibition might also induce micronuclei more efficiently in proliferating cancer cells as compared with non-genomically altered, non-proliferative cells in the TME such as immune cells and endothelial cells.
as §2
Cells were lysed in RIPA buffer containing 1× protease inhibitors (Roche, Cat #11-836-145-001) and phosphatase inhibitors (50 mmol/L NaF and 100 mmol/L Na3VO4). […] Imaging of blots and quantitation of bands was performed using the LICOR Odyssey system, or LAS-3000 (Fujifilm).

SMILES | micronuclei formation (H1944 cells [1]) | CXCL10 secretion in H1944 cells following 48-hour pulse treatment (STING pathway; H1944 cells, IC50-based screening concentration, ELISA of conditioned medium) | CXCL10 induction at lower concentrations (STING pathway; H1944 cells, concentrations below the IC50, pulse treatment) | IC50 (H1944 cells [2]) [nM] | CXCL10 secretion, STING^Absent KL cell lines (KL NSCLC cell lines; A549, H23, A427, up to 100 μM) | CXCL10 secretion, STING^Low KL cells (KL NSCLC cell lines; H1944, H2122, H647, H1355, 3.125-100 μM) | STING pathway activation in macrophage-like THP1 cells (THP1 cells) | STING signaling activation in H1944 cells (STING pathway; 200 nM CFI-402257 screening schedule vs 10 μM ADU-S100 24 hours)
CC(=O)O[C@@]12CO[C@@H]1C[C@H](O)[C@@]1(C)C(=O)[C@H](O)C3=C(C)[C@@H](OC(=O)[C@H](O)[C@@H](NC(=O)OC(C)(C)C)c4ccccc4)C[C@@](O)([C@@H](OC(=O)c4ccccc4)[C@H]21)C3(C)C [docetaxel] | generated micronuclei | induce significant CXCL10 secretion; also recorded: partially activated CXCL10 production | not upregulated | 3.97 |  |  |  | 
Nc1ncnc2c1ncn2[C@@H]1O[C@@H]2COP(=O)([S-])O[C@@H]3[C@H](O)[C@@H](COP([O-])(=S)O[C@H]2[C@H]1O)O[C@H]3n1cnc2c(N)ncnc21.[Na+].[Na+] (some centres unmarked) [ADU-S100] |  |  |  |  | failed to respond | dose-dependent manner | high sensitivity | negligible impact
